Results reported in patent publication US10689381B2 (priority 2017, dated 2020).

How the values were obtained:
HCT116 = assay: cells; format: cell-based, human; settings: for IC50: Table 2, read-out: IC50 HCT116; for potency relative to vinblastine (more potent): vinblastine-sensitive cell lines
Description: (§1) A population of cells (>1×10^6 cells/mL as determined with a hemocytometer) was diluted with Dulbecco's Modified Eagle Medium (DMEM, Gibco) containing 10% fetal bovine serum (FBS, Gibco) to give a final concentration of 30,000 cells/mL. To each well of a 96-well plate (Corning® Costar®) was added 100 μL of the cell media solution with a multichannel pipet.
(§2) The test compounds were then added to the plate as follows: test compounds were diluted in DMSO to a concentration of 1 mM. 10-Fold serial dilutions in DMSO were next performed on a separate 96-well plate. Fresh culture media (100 μL) was added to each well of cells resulting in 200 μL of medium per well followed by 2 μL of each test agent. Compounds were tested in duplicate (n=2-8 times) at six concentrations between 0-1000 nM or 0-10000 nM. Following the addition of compound, cultures were incubated for an additional 72 hours.
(§3) The plates were incubated at 37° C. for 5 minutes (L1210) or 15 min (HCT116 and HCT116/VM46).

L1210 = assay: cells; format: cell-based, mouse; settings: Table 2
Description: as §1, §2, §3

| Structure (SMILES) | IC50 (HCT116) [nM] | IC50 (L1210) [nM] | potency relative to vinblastine (more potent) (HCT116) [fold] |
| --- | --- | --- | --- |
| CCC1(NC(=O)c2ccc(C(F)(F)F)cc2)CC2CN(CCc3c([nH]c4ccccc34)C(C(=O)OC)(c3cc4c(cc3OC)N(C)C3C(O)(C(=O)OC)C(OC(C)=O)C5(CC)C=CCN6CCC43C65)C2)C1 (stereo not shown) [Compound 39] | 3.3 | 4.3 | – |
| CC[C@]1(NC(=O)c2cccc(C(F)(F)F)c2)C[C@H]2CN(CCc3c([nH]c4ccccc34)[C@@](C(=O)OC)(c3cc4c(cc3OC)N(C)[C@H]3[C@@](O)(C(=O)OC)[C@H](OC(C)=O)[C@]5(CC)C=CCN6CC[C@]43[C@@H]65)C2)C1 [Compound 40] | 6.4 | 6.2 | – |
| CCC1(NC(=O)c2ccccc2C(F)(F)F)CC2CN(CCc3c([nH]c4ccccc34)C(C(=O)OC)(c3cc4c(cc3OC)N(C)C3C(O)(C(=O)OC)C(OC(C)=O)C5(CC)C=CCN6CCC43C65)C2)C1 (stereo not shown) [Compound 41] | 60 | 45 | – |
| CCC1(NC(=O)c2ccc(-c3ccccc3)cc2)CC2CN(CCc3c([nH]c4ccccc34)C(C(=O)OC)(c3cc4c(cc3OC)N(C)C3C(O)(C(=O)OC)C(OC(C)=O)C5(CC)C=CCN6CCC43C65)C2)C1 (stereo not shown) [Compound 42] | 5.4 | 5.5 | – |
| CCC1(NC(=O)c2ccc(C3CCCCC3)cc2)CC2CN(CCc3c([nH]c4ccccc34)C(C(=O)OC)(c3cc4c(cc3OC)N(C)C3C(O)(C(=O)OC)C(OC(C)=O)C5(CC)C=CCN6CCC43C65)C2)C1 (stereo not shown) [Compound 43] | 30 | 40 | – |
| CC[C@]1(NC(=O)c2ccc(F)cc2)C[C@H]2CN(CCc3c([nH]c4ccccc34)[C@@](C(=O)OC)(c3cc4c(cc3OC)N(C)[C@H]3[C@@](O)(C(=O)OC)[C@H](OC(C)=O)[C@]5(CC)C=CCN6CC[C@]43[C@@H]65)C2)C1 [Compound 44] | 1.4 | 1.8 | – |
| CC[C@]1(NC(=O)c2cccc(F)c2)C[C@H]2CN(CCc3c([nH]c4ccccc34)[C@@](C(=O)OC)(c3cc4c(cc3OC)N(C)[C@H]3[C@@](O)(C(=O)OC)[C@H](OC(C)=O)[C@]5(CC)C=CCN6CC[C@]43[C@@H]65)C2)C1 [Compound 45] | 5.3 | 5.7 | – |
| CC[C@]1(NC(=O)c2ccccc2F)C[C@H]2CN(CCc3c([nH]c4ccccc34)[C@@](C(=O)OC)(c3cc4c(cc3OC)N(C)[C@H]3[C@@](O)(C(=O)OC)[C@H](OC(C)=O)[C@]5(CC)C=CCN6CC[C@]43[C@@H]65)C2)C1 [Compound 46] | 7.7 | 8.4 | – |
| CC[C@]1(NC(=O)c2ccc(Cl)cc2)C[C@H]2CN(CCc3c([nH]c4ccccc34)[C@@](C(=O)OC)(c3cc4c(cc3OC)N(C)[C@H]3[C@@](O)(C(=O)OC)[C@H](OC(C)=O)[C@]5(CC)C=CCN6CC[C@]43[C@@H]65)C2)C1 [Compound 47] | 3.2 | 3.1 | – |
| CC[C@]1(NC(=O)c2cccc(Cl)c2)C[C@H]2CN(CCc3c([nH]c4ccccc34)[C@@](C(=O)OC)(c3cc4c(cc3OC)N(C)[C@H]3[C@@](O)(C(=O)OC)[C@H](OC(C)=O)[C@]5(CC)C=CCN6CC[C@]43[C@@H]65)C2)C1 [Compound 48] | 2.7 | 4.2 | – |
| CC[C@]1(NC(=O)c2ccccc2Cl)C[C@H]2CN(CCc3c([nH]c4ccccc34)[C@@](C(=O)OC)(c3cc4c(cc3OC)N(C)[C@H]3[C@@](O)(C(=O)OC)[C@H](OC(C)=O)[C@]5(CC)C=CCN6CC[C@]43[C@@H]65)C2)C1 [Compound 49] | 55 | 50 | – |
| CC[C@]1(NC(=O)c2ccc(Cl)c(Cl)c2)C[C@H]2CN(CCc3c([nH]c4ccccc34)[C@@](C(=O)OC)(c3cc4c(cc3OC)N(C)[C@H]3[C@@](O)(C(=O)OC)[C@H](OC(C)=O)[C@]5(CC)C=CCN6CC[C@]43[C@@H]65)C2)C1 [Compound 50] | 8.7 | 8.5 | – |
| CC[C@]1(NC(=O)c2ccc(Br)cc2)C[C@H]2CN(CCc3c([nH]c4ccccc34)[C@@](C(=O)OC)(c3cc4c(cc3OC)N(C)[C@H]3[C@@](O)(C(=O)OC)[C@H](OC(C)=O)[C@]5(CC)C=CCN6CC[C@]43[C@@H]65)C2)C1 [Compound 51] | 1.4 | 2.7 | – |
| CC[C@]1(NC(=O)c2cccc(Br)c2)C[C@H]2CN(CCc3c([nH]c4ccccc34)[C@@](C(=O)OC)(c3cc4c(cc3OC)N(C)[C@H]3[C@@](O)(C(=O)OC)[C@H](OC(C)=O)[C@]5(CC)C=CCN6CC[C@]43[C@@H]65)C2)C1 [Compound 52] | 6.3 | 5 | – |
| CCC1(NC(=O)c2ccc(Br)c(Br)c2)CC2CN(CCc3c([nH]c4ccccc34)C(C(=O)OC)(c3cc4c(cc3OC)N(C)C3C(O)(C(=O)OC)C(OC(C)=O)C5(CC)C=CCN6CCC43C65)C2)C1 (stereo not shown) [Compound 53] | 40 | 60 | – |
| CCC1(NC(=O)c2ccc(C#N)c(C)c2)CC2CN(CCc3c([nH]c4ccccc34)C(C(=O)OC)(c3cc4c(cc3OC)N(C)C3C(O)(C(=O)OC)C(OC(C)=O)C5(CC)C=CCN6CCC43C65)C2)C1 (stereo not shown) [Compound 55] | 6.2 | 4.8 | – |

| Structure (SMILES) | IC50 (HCT116) [nM] | IC50 (L1210) [nM] | potency relative to vinblastine (more potent) (HCT116) [fold] |
| --- | --- | --- | --- |
| CCC1(NC(=O)c2ccc([N+](=O)[O-])cc2)CC2CN(CCc3c([nH]c4ccccc34)C(C(=O)OC)(c3cc4c(cc3OC)N(C)C3C(O)(C(=O)OC)C(OC(C)=O)C5(CC)C=CCN6CCC43C65)C2)C1 (stereo not shown) [Compound 56] | 6.1 | 6.1 | – |
| CC[C@]1(NC(=O)c2ccc(N)cc2)C[C@H]2CN(CCc3c([nH]c4ccccc34)[C@@](C(=O)OC)(c3cc4c(cc3OC)N(C)[C@H]3[C@@](O)(C(=O)OC)[C@H](OC(C)=O)[C@]5(CC)C=CCN6CC[C@]43[C@@H]65)C2)C1 [Compound 57] | 0.4 | 0.4 | – |
| CCC1(NC(=O)c2ccc(NC(=O)OC)cc2)CC2CN(CCc3c([nH]c4ccccc34)C(C(=O)OC)(c3cc4c(cc3OC)N(C)C3C(O)(C(=O)OC)C(OC(C)=O)C5(CC)C=CCN6CCC43C65)C2)C1 (stereo not shown) [Compound 59] | 0.8 | 1.5 | – |
| CC[C@]1(NC(=O)c2ccc(NC)cc2)C[C@H]2CN(CCc3c([nH]c4ccccc34)[C@@](C(=O)OC)(c3cc4c(cc3OC)N(C)[C@H]3[C@@](O)(C(=O)OC)[C@H](OC(C)=O)[C@]5(CC)C=CCN6CC[C@]43[C@@H]65)C2)C1 [Compound 62] | 0.33 | 0.38 | – |
| CC[C@]1(NC(=O)c2ccc(N(C)C(=O)OC(C)(C)C)cc2)C[C@H]2CN(CCc3c([nH]c4ccccc34)[C@@](C(=O)OC)(c3cc4c(cc3OC)N(C)[C@H]3[C@@](O)(C(=O)OC)[C@H](OC(C)=O)[C@]5(CC)C=CCN6CC[C@]43[C@@H]65)C2)C1 [Compound 63] | 3.9 | 4.1 | – |
| CCC1(NC(=O)c2ccc(CN)cc2)CC2CN(CCc3c([nH]c4ccccc34)C(C(=O)OC)(c3cc4c(cc3OC)N(C)C3C(O)(C(=O)OC)C(OC(C)=O)C5(CC)C=CCN6CCC43C65)C2)C1 (stereo not shown) [Compound 65] | 3.5 | 25 | – |
| CC[C@]1(NC(=O)c2ccc(CNC(=O)OC(C)(C)C)cc2)C[C@H]2CN(CCc3c([nH]c4ccccc34)[C@@](C(=O)OC)(c3cc4c(cc3OC)N(C)[C@H]3[C@@](O)(C(=O)OC)[C@H](OC(C)=O)[C@]5(CC)C=CCN6CC[C@]43[C@@H]65)C2)C1 [Compound 66] | 0.7 | 0.76 | – |
| CCC1(NC(=O)c2ccc(OC)cc2)CC2CN(CCc3c([nH]c4ccccc34)C(C(=O)OC)(c3cc4c(cc3OC)N(C)C3C(O)(C(=O)OC)C(OC(C)=O)C5(CC)C=CCN6CCC43C65)C2)C1 (stereo not shown) [Compound 67] | 0.3 | 0.25 | – |
| CCC1(NC(=O)c2cccc(OC)c2)CC2CN(CCc3c([nH]c4ccccc34)C(C(=O)OC)(c3cc4c(cc3OC)N(C)C3C(O)(C(=O)OC)C(OC(C)=O)C5(CC)C=CCN6CCC43C65)C2)C1 (stereo not shown) [Compound 68] | 0.8 | 0.6 | – |
| CCC1(NC(=O)c2ccccc2OC)CC2CN(CCc3c([nH]c4ccccc34)C(C(=O)OC)(c3cc4c(cc3OC)N(C)C3C(O)(C(=O)OC)C(OC(C)=O)C5(CC)C=CCN6CCC43C65)C2)C1 (stereo not shown) [Compound 69] | 10 | 30 | – |
| CCC1(NC(=O)c2ccc(OC)c(OC)c2)CC2CN(CCc3c([nH]c4ccccc34)C(C(=O)OC)(c3cc4c(cc3OC)N(C)C3C(O)(C(=O)OC)C(OC(C)=O)C5(CC)C=CCN6CCC43C65)C2)C1 (stereo not shown) [Compound 70] | 0.07 | 0.06 | – |
| CC[C@]1(NC(=O)c2cc(OC)c(OC)c(OC)c2)C[C@H]2CN(CCc3c([nH]c4ccccc34)[C@@](C(=O)OC)(c3cc4c(cc3OC)N(C)[C@H]3[C@@](O)(C(=O)OC)[C@H](OC(C)=O)[C@]5(CC)C=CCN6CC[C@]43[C@@H]65)C2)C1 [Compound 71] | 0.1 | 0.09 | – |
| CCOc1ccc(C(=O)NC2(CC)CC3CN(CCc4c([nH]c5ccccc45)C(C(=O)OC)(c4cc5c(cc4OC)N(C)C4C(O)(C(=O)OC)C(OC(C)=O)C6(CC)C=CCN7CCC54C76)C3)C2)cc1 (stereo not shown) [Compound 72] | 0.6 | 0.6 | 10 |
| CCOc1ccc(C(=O)NC2(CC)CC3CN(CCc4c([nH]c5ccccc45)C(C(=O)OC)(c4cc5c(cc4OC)N(C)C4C(O)(C(=O)OC)C(OC(C)=O)C6(CC)C=CCN7CCC54C76)C3)C2)cc1OCC (stereo not shown) [Compound 73] | 0.5 | 0.4 | – |
| CCC1(NC(=O)c2ccc(OC(C)C)cc2)CC2CN(CCc3c([nH]c4ccccc34)C(C(=O)OC)(c3cc4c(cc3OC)N(C)C3C(O)(C(=O)OC)C(OC(C)=O)C5(CC)C=CCN6CCC43C65)C2)C1 (stereo not shown) [Compound 74] | 0.8 | 0.7 | 10 |
